These results are taken from patent US20230210858A1, “PODOSOMES AS A THERAPEUTIC TARGET FOR INTRACRANIAL ANEURYSM” (THE BOARD OF REGENTS OF THE UNIVERSITY OF TEXAS SYSTEM, priority 2022, published 2023).

Experiment [1] deals with Thsd1-deficient zebrafish. Kind of experiment: Intracranial hemorrhage in thsd1 knockdown zebrafish embryos treated with SRC inhibitor (FIG. 8). The conditions noted are these: vs DMSO control, n>120 embryos, p<0.05, FIG. 8b. The experiment is classed as in vivo. The method, then:
(§1) Anti-sense morpholinos against thsd1, atg5 or talin was injected into one-cell stage zebrafish singly or in combination to silence the gene accordingly. At day 2 to day 3, embryos will be checked under regular optical microscope. Embryos with intracranial hemorrhages will be counted and imaged by Olympus microscope.
Intracranial aneurysm and hemorrhage are tightly associated with compromised cerebrovascular integrity. Recently, zebrafish have gained additional popularity as a vertebrate model organism for studying the cerebrovasculature. Since zebrafish embryos are transparent, intracranial hemorrhage can be directly observed using a standard microscope. Furthermore, zebrafish fecundity and rapid development permits rapid phenotypic evaluation as intracranial hemorrhage in zebrafish fry are detectable as early as 2-3 days post fertilization. Importantly, gain-of-function and loss-of-function approaches are well established in zebrafish that include morpholino and mRNA injections and more recently, through applications of CRISPR/Cas9 technology.
FIGS. 8a-8b are experimental results depicting that loss-of-function of Thsd1 induces SRC-dependent intracranial hemorrhage in zebrafish, and treatment with a PP2 SRC inhibitor prevents intracranial hemorrhage in Thsd1-deficient zebrafish. […] FIG. 8b is a chart quantifying the number of embryos with intracranial hemorrhage (%).

The test system of experiment [2] is thsd1-MO injected zebrafish embryos. Kind of experiment: Hemorrhagic incidence in thsd1-MO injected zebrafish embryos (Table 5 constructs) treated with SRC inhibitors (FIG. 13). The experiment is classed as in vivo. The method, then: as §1
Subsequently, the nucleic acid constructs encoding these sequences were introduced into zebrafish thsd1 by PCR mutagenesis. Specifically, the thsd1 variant or the WT sequence was subcloned into pCS2+ zebrafish vector for expression. These constructs were used as tools to study cerebrovascular integrity mediated by thsd1 WT and rare variants in the zebrafish animal model selected to model a human condition.
All embryos were injected by thsd1-MO and the hemorrhagic incidence was counted under microscope. For each injection, around 80-120 embryos were injected. *p<0.05, **p<0.01.

Consider `CC(C)(C)n1nc(-c2ccc(Cl)cc2)c2c(N)ncnc21` [PP2], for which the “number of embryos with intracranial hemorrhage (%)” value in experiment [1] is “ameliorated Thsd1-dependent hemorrhage incidents”. For the same molecule, the “hemorrhagic incidence (intracranial hemorrhage)” value in experiment [2] (10 uM in embryo water at 1 dpf for 24 hours) is given as “rescued intracranial hemorrhage”. Consider `CN(C)S(=O)(=O)c1ccc2c(c1)/C(=C/c1cc3c([nH]1)CCCC3)C(=O)N2` [SU5565], for which, in experiment [2] (1 uM in embryo water at 1 dpf for 24 hours), the “hemorrhagic incidence (intracranial hemorrhage)” value is “rescued intracranial hemorrhage”.
